Experimental data published in US8912318B2, “Nucleobase-functionalized conformationally restricted nucleotides and oligonucleotides for targeting nucleic acids” (University of Idaho, priority 2009, dated 2014).
Where two headings read alike, the source gives them in different places.

What was measured:
[1] = system: complementary or mismatched DNA targets; settings: cited from earlier work
[2] = system: complementary or mismatched DNA targets; assay: Fluorescence quantum yields and extinction coefficients with DNA targets; type: physicochemical
complementary DNA = assay: UV thermal denaturation of 13-mer fluorophore probes with complementary DNA; type: binding; settings: B = A
mismatched DNA targets = assay: UV thermal denaturation of 13-mer fluorophore probes with mismatched DNA targets; type: binding; settings: for mismatch ΔTm: mismatched vs complementary duplex; for Tm / ΔTm: DNA: 3′-d(GCG TTG BGT TGC G); for ΔTm: relative to B = A
complementary RNA = assay: UV thermal denaturation of 13-mer probes with complementary RNA; type: binding; settings: B = A
mismatched RNA targets = assay: UV thermal denaturation of 13-mer probes with mismatched RNA targets; type: binding
[3] = system: complementary or mismatched DNA targets; assay: Steady-state fluorescence emission intensity with DNA targets; settings: for discrimination factor Im/Imm, range: intensity of duplex with complementary DNA divided by intensity of SSP or mismatched duplexes
[4] = system: dsDNA target (SEQ ID NO: 2 : SEQ ID NO: 3); assay: UV thermal denaturation of triplexes formed by TFOs with dsDNA; type: binding; settings: for Tm of triplex: pH 7.0 phosphate buffer, 140 mM KCl, 1.0 μM each strand; for ΔTm/mod of triplex: relative to reference DNA TFO T1, per modification
[5] = system: dsDNA target (SEQ ID NO: 4 : SEQ ID NO: 5), B:B′ = A:T; assay: Thermal denaturation of matched triplexes in the presence of Mg2+ ions; type: binding; settings: A:T (match); 10 mM MgCl2
Experimental: (§1) Concentrations of all TFOs were determined using the extinction coefficient of 118500 L×(mol×cm)-1. 1 mL solution containing 1.0 nmol of each strand was denatured by heating and subsequently cooled to the starting temperature of the experiment in quartz optical cells with a path-length of 1.0 cm. Thermal denaturation profiles were recorded on a Cary 100 UV/VIS spectrophotometer equipped with a 12-cell Peltier temperature controller using a ramp of 0.5° C./min. Thermal denaturation temperatures (Tm) for triplex to duplex transitions were determined as the first derivative of difference thermal denaturation profiles (dA260 vs. T), which were obtained by subtracting the thermal denaturation profile of the dsDNA target (always included as one of the samples in multicell holder of UV-Vis spectrophotometer) from the raw thermal denaturation profile of the TFO+dsDNA (FIG. 13). Reported Tm-values are an average of at least two experiments within ±1.0° C.

[6] = system: Hoogsteen mismatched dsDNA targets (SEQ ID NO: 4 : SEQ ID NO: 5), B:B′ = T:A, C:G, G:C; assay: Thermal denaturation of Hoogsteen mismatched triplexes in the presence of Mg2+ ions; type: binding; settings: for Tm of triplex: 10 mM MgCl2; for ΔTm: change relative to matched triplex
Experimental: as §1

[7] = complementary DNA, [Na+] = 110 mM, pH 7.0, 1.0 μM each strand
[8] = vs. the C-mismatched DNA target

c1ccc(-c2c3ccccc3c(-c3ccccc3)c3ccccc23)cc1 [9,10-diphenylanthracene]
fluorescence quantum yield ΦF [1]: 0.95

O=C(NCC#Cc1cn([C@H]2C[C@H](O)[C@@H](CO)O2)c(=O)[nH]c1=O)c1ccc2ccc3cccc4ccc1c2c34 [P″, 5-[3-(1-pyrenecarboxamido)propynyl]-2′-deoxyuridine]
Fluorescence quantum yield (φF) ([2]; DNA target B = A, T = 5° C.): 0.33-0.58

O=C(O)CCCc1ccc2ccc3cccc4ccc1c2c34 [pyrenebutanoic acid]
fluorescence quantum yield ΦF ([2]; in MeOH, relative to 9,10-diphenylanthracene): 0.069
fluorescence quantum yield ΦF, reported value [1]: 0.065

ON1: unmodified reference strand 5′-CG CAA ATA AAC GC (DNA CGCAAATAAACGC; unmodified DNA) [reference compound]
Tm (complementary DNA; [7]): 48.5 °C
mismatch ΔTm (mismatched DNA targets; DNA target B = C): −10.0 °C
mismatch ΔTm (mismatched DNA targets; DNA target B = G): −5.0 °C
mismatch ΔTm (mismatched DNA targets; DNA target B = T): −9.0 °C

ON2: unmodified reference strand 5′-CG CAA CTC AAC GC (DNA CGCAACTCAACGC; DNA, backbone not given here) [reference compound]
Tm (complementary DNA; DNA: 3′-d(GCG TTG BGT TGC G)): 55.5 °C
Tm (complementary DNA; [7]): 55.5 °C
mismatch ΔTm (mismatched DNA targets; DNA target B = C): −13.5 °C
mismatch ΔTm (mismatched DNA targets; DNA target B = G): −7.0 °C
mismatch ΔTm (mismatched DNA targets; DNA target B = T): −9.0 °C
Tm (mismatched DNA targets; B = C): 42.0 °C
ΔTm (mismatched DNA targets; B = C): (−13.5) ° C.
Tm (mismatched DNA targets; B = G): 48.5 °C
ΔTm (mismatched DNA targets; B = G): (−7.0) ° C.
Tm (mismatched DNA targets; B = T): 46.5 °C
ΔTm (mismatched DNA targets; B = T): (−9.0) ° C.
Tm (complementary RNA): 51.5 °C
mismatch DTm (mismatched RNA targets; RNA target B = C): −15.5 °C
mismatch DTm (mismatched RNA targets; RNA target B = G): −3.0 °C
mismatch DTm (mismatched RNA targets; RNA target B = U): −13.5 °C

ON10: 5′-CG CAA CPC AAC GC (DNA CGCAACNCAACGC; listed as DNA, chemistry not fully specified)
Tm (complementary DNA; DNA: 3′-d(GCG TTG BGT TGC G)): 52.5 °C
Tm (mismatched DNA targets; B = C): 43.0 °C
ΔTm (mismatched DNA targets; B = C): (−9.5) ° C.
Tm (mismatched DNA targets; B = G): 48.0 °C
ΔTm (mismatched DNA targets; B = G): (−4.5) ° C.
Tm (mismatched DNA targets; B = T): 46.0 °C
ΔTm (mismatched DNA targets; B = T): (−6.5) ° C.
discrimination factor Im/Imm, range [3]: 7.3-15.9

ON11: 5′-CG CAA GPG AAC GC (DNA CGCAAGNGAACGC; listed as DNA, chemistry not fully specified)
discrimination factor Im/Imm, range [3]: 8.3-41.9

ON13: 5′-CG CAA AP′A AAC GC (DNA CGCAAANAAACGC; modified nucleotide P', chemistry not fully specified)
discrimination factor Im/Imm, range [3]: 3.4-14.1

ON14: 5′-CG CAA CP′C AAC GC (DNA CGCAACNCAACGC; modified nucleotide P', chemistry not fully specified)
Tm (complementary DNA; DNA: 3′-d(GCG TTG BGT TGC G)): 51.5 °C
Tm (mismatched DNA targets; B = C): 40.5 °C
ΔTm (mismatched DNA targets; B = C): (−11.5) ° C.
Tm (mismatched DNA targets; B = G): 44.5 °C
ΔTm (mismatched DNA targets; B = G): (−7.0) ° C.
Tm (mismatched DNA targets; B = T): 44.5 °C
ΔTm (mismatched DNA targets; B = T): (−7.0) ° C.
ΦF,m/ΦF,mm [2, 8]: ~3.2
discrimination factor Im/Imm [3, 8]: 5.8

ON16: 5′-CG CAA TP′T AAC GC (DNA CGCAATNTAACGC; modified nucleotide P', chemistry not fully specified)
discrimination factor Im/Imm, range [3]: 2.9-11.4

SEQ ID NO: 9: 5′-d(CGC AAC βCA ACG C (DNA CGCAACNCAACGC; β modified nucleotide, chemistry not fully specified)
Tm (complementary DNA; DNA: 3′-d(GCG TTG BGT TGC G)): 56.5 °C
Tm (mismatched DNA targets; B = C): 43.0 °C
ΔTm (mismatched DNA targets; B = C): (−13.0) ° C.
Tm (mismatched DNA targets; B = G): 46.5 °C
ΔTm (mismatched DNA targets; B = G): (−10.0) ° C.
Tm (mismatched DNA targets; B = T): 48.5 °C
ΔTm (mismatched DNA targets; B = T): (−8.0) ° C.

SEQ ID NO: 10: 5′-d(CGC AAC γCA ACG C (DNA CGCAACNCAACGC; γ modified nucleotide, chemistry not fully specified)
Tm (complementary DNA; DNA: 3′-d(GCG TTG BGT TGC G)): 47.0 °C
Tm (mismatched DNA targets; B = C): 45.5 °C
ΔTm (mismatched DNA targets; B = C): (−1.5) ° C.
Tm (mismatched DNA targets; B = G): 46.5 °C
ΔTm (mismatched DNA targets; B = G): (-0.5) ° C.
Tm (mismatched DNA targets; B = T): 45.5 °C
ΔTm (mismatched DNA targets; B = T): (−1.5) ° C.

SEQ ID NO: 11: 5′-d(CGC AAC αCA ACG C (DNA CGCAACNCAACGC; α modified nucleotide, chemistry not fully specified)
Tm (complementary DNA; DNA: 3′-d(GCG TTG BGT TGC G)): 44.5 °C
Tm (mismatched DNA targets; B = C): 43.0 °C
ΔTm (mismatched DNA targets; B = C): (−1.5) ° C.
Tm (mismatched DNA targets; B = G): 46.0 °C
ΔTm (mismatched DNA targets; B = G): (+1.5) ° C.
Tm (mismatched DNA targets; B = T): 45.0 °C
ΔTm (mismatched DNA targets; B = T): (+0.5) ° C.

V1′: TFO TTT TT^mC TBT ^mCT^mC T^mCT, B = V′ (DNA TTTTTNTNTNTNTNT; 5-methyl-C, modified nucleotide V', chemistry not fully specified)
Tm of triplex [4]: 37.0 °C
ΔTm/mod of triplex [4]: +8.0 °C
Tm of triplex [5]: 46.0 °C
Tm of triplex ([6]; C:G mismatch): 14.5 °C
ΔTm ([6]; C:G mismatch): −31.5 °C
Tm of triplex ([6]; G:C mismatch): 25.5 °C
ΔTm ([6]; G:C mismatch): −20.5 °C
Tm of triplex ([6]; T:A mismatch): 11.0 °C
ΔTm ([6]; T:A mismatch): −36.0 °C

X1′: TFO TTT TT^mC TBT ^mCT^mC T^mCT, B = X′ (DNA TTTTTNTNTNTNTNT; 5-methyl-C, modified nucleotide X', chemistry not fully specified) [reference compound]
Tm of triplex [4]: 35.5 °C
ΔTm/mod of triplex [4]: +6.5 °C
Tm of triplex [5]: 45.0 °C
Tm of triplex ([6]; C:G mismatch): 15.5 °C
ΔTm ([6]; C:G mismatch): −29.5 °C
Tm of triplex ([6]; G:C mismatch): 22.5 °C
ΔTm ([6]; G:C mismatch): −22.5 °C
Tm of triplex ([6]; T:A mismatch): 10.0 °C
ΔTm ([6]; T:A mismatch): −35.0 °C

Y1′: TFO TTT TT^mC TBT ^mCT^mC T^mCT, B = Y′ (DNA TTTTTNTNTNTNTNT; 5-methyl-C, modified nucleotide Y', chemistry not fully specified)
Tm of triplex [4]: 37.5 °C
ΔTm/mod of triplex [4]: +8.5 °C
Tm of triplex [5]: 47.5 °C
Tm of triplex ([6]; C:G mismatch): 13.5 °C
ΔTm ([6]; C:G mismatch): −34.0 °C
Tm of triplex ([6]; G:C mismatch): 24.5 °C
ΔTm ([6]; G:C mismatch): −23.0 °C
Tm of triplex ([6]; T:A mismatch): 12.0 °C
ΔTm ([6]; T:A mismatch): −35.5 °C
